Counter-ions that a name gives are not always drawn.
Key:
[1] = system: primary neurons; experiment: TMRM fluorescence assay of inner mitochondrial membrane potential (ΔΨm); settings: for TMRM Primary: primary screen; for TMRM Primary / TMRM Rescreen: 24 h; for Emax / EC50: Mus musculus, Primary neuron; for Emax: read-out: TMRM (Effect-size); for EC50: read-out: TMRM-EC50
Procedure: Mitochondrial dyes. To assay the electrochemical potential across the inner mitochondrial membrane of cultured cells, we used the cell-permeant dye tetramethylrhodamine methyl ester (TMRM). For co-localization studies with Mt-GFP, TMRM was used at 20 nM on DIV14 and incubated for 30 min prior to imaging. For the orthogonal screen of compounds, TMRM was added to primary neurons on DIV13 at 10 nM, one hr prior to pintooling selected compounds, and incubated for 24 hr. Cells were washed 2× with pre-warmed fresh feeding media without B27 before measurements with a plate reader.
(§1) A CLARIOstar (BMG LABTECH) microplate reader was used to measure fluorescence of TMRM and luminescence produced from the ATP.
(§2) Mitochondrial membrane potential (Δψm) and luminescence-based ATP assays. […] Changes of ΔΨm in each well were monitored using the mitochondrial-specific, fluorescent dye TMRM (tetramethyl rhodamine, methyl ester; Molecular Probes) and measured using a CLARIOstar plate reader. […] This concentration was used throughout our experiments. […] Wells in columns 1 and 24 were not loaded with TMRM; these served to measure background signal which was subtracted from the wells to which TMRM was added. To measure the total ATP levels in neurons we utilized the CellTiter-Glo® luminescence-based ATP assay (Promega). DIV13 primary neurons were cultured for 24 h with either DMSO carrier or compound treatment, followed by removing 55 μl culture medium from each well. Plates were maintained at room temperature for 25 m, and 25 μl of CellTiter-Glo® Reagent with the substrate luciferin was then added to each well (Promega). Plates were covered with aluminum foil and shaken vigorously on an orbital shaker for 10 m at 200 rpm and maintained at room temperature for an additional 2 m in dark before being read with the plate reader set to the luminescence mode.
Compound library and hit picking rules. We screened 2400 compounds from the MicroSource Spectrum library. […] FIGS. 13A-13E provide details of the assays used from which hit picking rules were made. In essence, the average fluorescence for each compound in the TMRM assay was determined and compared to the average fluorescence for compounds in the population on each assay plate to produce a Z-score. The Z-scores for each individual compound assayed across the four replicate plates was then averaged.

[2] = system: primary neurons; experiment: CellTiter-Glo luminescence-based ATP assay; type: cell-based, mouse; settings: for ATP: ATP orthogonal screen, 24 h; for EC50 / Emax: Mus musculus, Primary neuron, dose response; for EC50: 15 concentrations from 6 nM to 100 uM; for Emax: maximal percent increase relative to in-plate DMSO controls, read-out: ATP (Effect-size)
Procedure: Measurement of ATP production. The total amount of ATP produced by cultured primary neurons was measured by CellTiter-Glo Luminescent Cell Viability Assay (Promega). A recombinant luciferase enzyme catalyzed the mono-oxygenation of luciferin while hydrolyzing ATP produced by the cells and emitting light. We followed the manufacturer's protocol with primary neurons on DIV14.
as §1, §2
Compound library and hit picking rules. We screened 2400 compounds from the MicroSource Spectrum library. […] FIGS. 13A-13E provide details of the assays used from which hit picking rules were made. In essence, the average fluorescence for each compound in the TMRM assay was determined and compared to the average fluorescence for compounds in the population on each assay plate to produce a Z-score. The Z-scores for each individual compound assayed across the four replicate plates was then averaged. Because of significant well location effects (outer rows) on each assay plate (FIG. 13G), we selected primary hits as enhancing well fluorescence above the μplate by 3σplate for inner row wells (rows C-N, columns 3-22), and by 2.5σplate for outer row wells (rows A, B, O, P; columns 3-22) (FIG. 14C-D). […] All orthogonal assays employed inner wells of the 384-well plates.

Compound	TMRM Primary ([1]; 12.5 μM)	TMRM Rescreen [1]	ATP [2]	Emax [1]	EC50 [1]	EC50 [2]	Emax [2]	hit in TMRM primary screen when assayed at 4 h ([1]; 12.5 μM, 4 h)
CCN(CC)CCOC(=O)C(c1ccccc1)c1ccccc1 [adiphenine hydrochloride]	3.05 Z-scores	3.21 Z-scores	4.95 Z-scores	–	–	–	–	–
CN1[C@@H](CC(=O)c2ccccc2)CCC[C@H]1C[C@H](O)c1ccccc1 [lobeline hydrochloride]	6.62 Z-scores	6.75 Z-scores	3.67 Z-scores	–	–	–	–	–
CCCOc1ccc(C(=O)OCCN(CC)CC)cc1N [proparacaine hydrochloride]	3.43 Z-scores	4.65 Z-scores	4.11 Z-scores	–	–	–	–	–
N=c1ccn2c(n1)O[C@H]1[C@H](O)[C@@H](CO)O[C@H]12 [ancitabine hydrochloride]	3.04 Z-scores	1.36 Z-scores	0.14 Z-scores	–	–	–	–	–
CC1=C2C[C@H]3[C@@H](CC=C4C[C@@H](O)CC[C@@]43C)[C@@H]2CC[C@]12O[C@@H]1C[C@H](C)CN[C@H]1[C@H]2C [cyclopamine]	3.74 Z-scores	8.14 Z-scores	5.15 Z-scores	–	–	–	–	–
CCN1CCCC(OC(=O)C(c2ccccc2)c2ccccc2)C1 (stereo not drawn) [piperidolate hydrochloride]	3.58 Z-scores	3.76 Z-scores	5.72 Z-scores	–	–	–	–	–
OC(CCN1CCCC1)(c1ccccc1)C1CCCCC1 (stereo not drawn) [procyclidine hydrochloride]	4.55 Z-scores	6.91 Z-scores	7.14 Z-scores	23.3%	850 nM	240 nM	18.7%	–
C[N+]12CCC(CC1)C(OC(=O)C(O)(c1ccccc1)c1ccccc1)C2 (stereo not drawn) [clidinium bromide]	2.49 Z-scores	4.11 Z-scores	6.21 Z-scores	14.3%	450 nM	420 nM	20.5%	–
CNCCC=C1c2ccccc2CCc2ccccc21 [nortriptyline hydrochloride]	3.77 Z-scores	5.25 Z-scores	5.66 Z-scores	21%	550 nM	200 nM	16.5%	–
c1ccc(-c2ccc(C(c3ccccc3)n3ccnc3)cc2)cc1 (stereo not drawn) [bifonazole]	3.81 Z-scores	1.84 Z-scores	4.00 Z-scores	–	–	–	–	–
CN(C)CCC=C1c2ccccc2C=Cc2ccccc21 [cyclobenzaprine hydrochloride]	5.52 Z-scores	4.71 Z-scores	3.49 Z-scores	–	–	–	–	–
CN(C)CCN(Cc1ccc(Cl)cc1)c1ccccn1 [chloropyramine hydrochloride]	3.35 Z-scores	5.24 Z-scores	3.26 Z-scores	–	–	–	–	–
CC(C)CCC[C@@H](C)[C@H]1CC[C@H]2[C@@H]3CC(=O)[C@H]4C[C@@H](O)CC[C@]4(C)[C@H]3CC[C@]12C [5alpha-cholestan-3beta-ol-6-one]	7.10 Z-scores	7.61 Z-scores	5.86 Z-scores	–	–	–	–	–
CN(C)CCOC(c1ccccc1)c1ccccc1.Cn1c(=O)c2[nH]c(Cl)nc2n(C)c1=O [dimenhydrinate]	3.98 Z-scores	4.31 Z-scores	4.94 Z-scores	–	–	–	–	–
Nc1c(Br)cc(Br)cc1CN[C@H]1CC[C@H](O)CC1 [ambroxol hydrochloride]	4.00 Z-scores	5.14 Z-scores	5.04 Z-scores	–	–	–	–	–
COc1ccc(CN=c2[nH]c(N3CCC[C@H]3CO)ncc2C(=O)NCc2ncccn2)cc1Cl [avanafil]	3.13 Z-scores	3.42 Z-scores	1.30 Z-scores	–	–	–	–	–
OC(CCN1CCCCC1)(c1ccccc1)C1CCCCC1 (stereo not drawn) [trihexyphenidyl hydrochloride]	6.07 Z-scores	7.08 Z-scores	5.95 Z-scores	20%	3200 nM	170 nM	17.8%	–
COc1ccc(-n2nc(CCC(=O)N(C)O)cc2-c2ccc(Cl)cc2)cc1 [tepoxalin]	4.36 Z-scores	3.75 Z-scores	6.89 Z-scores	–	–	–	–	–
carvedilol phosphate	5.81 Z-scores	5.43 Z-scores	6.87 Z-scores	–	–	–	–	–
CC(CN(C)C)CN1c2ccccc2CCc2ccccc21 (stereo not drawn) [trimipramine maleate]	5.18 Z-scores	5.16 Z-scores	5.24 Z-scores	20%	360 nM	180 nM	16.4%	–
trimebutine maleate	3.79 Z-scores	5.82 Z-scores	6.14 Z-scores	–	–	–	–	trimebutine maleate*
CC(C)(C)NC[C@H](O)COc1ccccc1C1CCCC1 [penbutolol sulfate]	3.16 Z-scores	5.35 Z-scores	3.39 Z-scores	–	–	–	–	–
CSc1nc2cc(Cl)c(Oc3cccc(Cl)c3Cl)cc2[nH]1 [triclabendazole]	3.30 Z-scores	3.61 Z-scores	3.97 Z-scores	–	–	–	–	–
OC(CNCC(O)C1CCc2cc(F)ccc2O1)C1CCc2cc(F)ccc2O1 (stereo not drawn) [nebivolol hydrochloride]	3.73 Z-scores	5.29 Z-scores	6.92 Z-scores	–	–	–	–	–
CCCCOc1ccc(OCCCN2CCOCC2)cc1 [pramoxine hydrochloride]	2.93 Z-scores	−4.72 Z-scores	−1.97 Z-scores	–	–	–	–	–
COC(=O)C1=C(C)NC(C)=C(C(=O)OCCN(C)Cc2ccccc2)C1c1cccc([N+](=O)[O-])c1 (stereo not drawn) [nicardipine hydrochloride]	4.22 Z-scores	−5.52 Z-scores	−3.75 Z-scores	–	–	–	–	–
CCCCNc1ccc(C(=O)OCCOCCOCCOCCOCCOCCOCCOCCOCCOC)cc1 [benzonatate]	2.78 Z-scores	8.21 Z-scores	4.35 Z-scores	–	–	–	–	–
